BigSolDB 2.1

CCc1nnc(NC(=O)CCCCCNC(C)=O)s1
solubility (mole fraction) (in ethanol, 288.15 K): 0.000578 | solubility (mole fraction) (in ethanol, 293.15 K): 0.000733 | solubility (mole fraction) (in ethanol, 298.15 K): 0.000965 | solubility (mole fraction) (in ethanol, 303.15 K): 0.00118 | solubility (mole fraction) (in ethanol, 308.15 K): 0.00162 | solubility (mole fraction) (in ethanol, 313.15 K): 0.0021 | solubility (mole fraction) (in ethanol, 318.15 K): 0.0026 | solubility (mole fraction) (in n-hexane, 288.15 K): 1.54e-05 | solubility (mole fraction) (in n-hexane, 293.15 K): 1.81e-05 | solubility (mole fraction) (in n-hexane, 298.15 K): 2.15e-05 | solubility (mole fraction) (in n-hexane, 303.15 K): 2.47e-05 | solubility (mole fraction) (in n-hexane, 308.15 K): 3.05e-05 | solubility (mole fraction) (in n-hexane, 313.15 K): 3.55e-05 | solubility (mole fraction) (in n-hexane, 318.15 K): 4.13e-05 | solubility (mole fraction) (in n-octanol, 288.15 K): 0.000685 | solubility (mole fraction) (in n-octanol, 293.15 K): 0.000814 | solubility (mole fraction) (in n-octanol, 298.15 K): 0.000961 | solubility (mole fraction) (in n-octanol, 303.15 K): 0.00113 | solubility (mole fraction) (in n-octanol, 308.15 K): 0.00142 | solubility (mole fraction) (in n-octanol, 313.15 K): 0.00167 | solubility (mole fraction) (in n-octanol, 318.15 K): 0.00194
